Assay results: US6531636B1, “Synthetic endogenous cannabinoids analogues and uses thereof” (priority 1998, dated 2003)

What was measured:
[1] = test system: rats, mean arterial pressure; assay: Hypotensive effect in non-anaesthetized cannulated rats; format: in vivo; conditions: dose 12 mg/Kg
Description: To evaluate the potency of the compounds of the present invention as anti-hypertension agents, each compound was dissolved in a mixture of ethanol:emulphor:saline (1:1:18) and administered to non-anaestisized rats, cannulated through the aorta (for injection) and the jugular view (for measurements of blood pressure). […]

mice = assay: Analgesia, standard hot plate test in mice; format: in vivo; conditions: intravenous injection in tail vein
Description: The novel compounds prepared as described above were evaluated for their potency in […], according to the standard hot plate test, as briefly described hereinafter.
The compounds of the invention (HU-310, HU-313 and HU-314) wee dissolved in a detergent (Emulphomethanol:saline (5:5:90)) mixture and administered by intravenous injection in the tail vein of mice with an injection volume of 0.1 ml/10 g of body weight.

[2] = test system: female mice, arachidonic acid-induced paw swelling; assay: Arachidonic acid-induced paw edema in mice; format: in vivo; conditions: paw volume 30 min after arachidonic acid
Description: The potency of each of the compounds of the invention were evaluated for their potency to act as anti-inflammatory agents, according to the method described Calhoun W. et al., [Calhoun W. et al. Agents and Actions 21:306-309 (1987)]. In the method, water was substituted for mercury as the displacement medium. Platelet Activating Factor (PAF) (1.0 μg) or arachidonic acid (1.0 mg) dissolved in […] of a saline buffer containing 5% ethanol were injected subcutaneously into the plantar surface of the right hind paw of ether anaesthetized female mice (20-25 gr). The volume of the right foot was measured to the level of the lateral malleous by water displacement before treatment and 15 min after PAF injection or 30 min after arachidonic injection. The change in paw volume was calculated for each mouse. Table 2 presents the inhibition of archidonic acid induced paw swelling. The values obtained are measured as the increase in paw volume using a plethysmometer. The degree of swelling was expressed as the percentage in drug-treated mice compared to inhibition of paw edema from vehicle (Emulphor:ethanol:saline) treated controls (95% significance by ANOVA. N=5 mice/group). Control animals received peanut oil (50 μl).

CB1 receptor = target: T1, CB1 receptor (Rattus norvegicus, UniProt P20272); assay: Competitive inhibition of [3H]HU-243 binding to CB1, synaptosomal membranes; conditions: [3H]HU-243 60 pM, synaptosomal membrane protein
T1 construct: 4 μg of synaptosomal membrane protein were homogenized in 50 mM Tris-HCl; from tissue; host or cells: synaptosomal membranes (brain tissue)
Description: In principle, 4 μg of synaptosomal membrane protein were homogenized in 50 mM Tris-HCl, 2 mM MgCl2 and 1 mM EDTA pH 7.4 to obtain the binding mixture having a final concentration of 60 pM, with which the Ki was determined according to the assay described by Devane et al. [Devane et al. (1992) ibid.]. […] Ki values were calculated according to following known equation: Ki-IC50/(1+[L]/Kd) wherein IC50 is the concentration of a compound that will reduce a specific binding of a given radioligand by 50%; [L] is the concentration of the radioligand used in the assay and Kd is the dissociation constant for the radioligand (see also FIG. 3).

[3] = test system: pigeons suffering from emesia caused by cisplatin; assay: Antiemetic activity, cisplatin-induced emesis in pigeons; format: in vivo; conditions: subcutaneous
Description: The compounds of the invention were also evaluated for their potency as an antiemetic agent following the procedure described by Feigenbaum et al., [Eur. J. Pharmacol. 169:159-165 (1989, wherein pigeons suffering from emesia caused by an antineoplastic drug (cisplatin) were used as the model.
Accordingly, each compound was dissolved in Emulphor (detergent):ethanol:saline (5:5:90) and administered subcutaneously to the pigeons. The injection volume was 1.0 ml/kg body weight. Reduction of vomiting with 2-O-Arachidonyl glyceryl ether (HU-310) was 50% when using 3.0 mg of the active ingredient per kg body weight.

[4] = test system: rabbits with chymotrypsin-induced glaucoma; assay: Antiglaucoma activity, chymotrypsin-induced stable glaucoma in rabbits; format: in vivo; conditions: 0.01% in aqueous solution
Source text: Each compound was further evaluated for their potency as agent for treating and/or preventing glaucoma. Accordingly, stable glaucoma was induced in rabbits by injecting into the eye δ-chymotrypsin as described by Mechoulam R. et al., [Mechoulam R. et al., The Therapeutic Potential of Marihuana eds S. Cohen, R. C. Stillman Plenum Press, N.Y., pp. 35-48 (1975)]. As a control, pilocarpine, a standard antiglaucoma drug, was employed showing intraocular pressure (I.O.P.) reduction at a concentration of 0.01% in aqueous solution and provided a period of 30 hours delay in the recovery of the original chymotrypsin-induced IOP.
The compounds of the invention were each dissolved in a detergent (Emulphor:ethanol:saline (5:5:90)) mixture and then further diluted with saline to obtain the desired concentrations.

T1 sequence (P20272 whole entry): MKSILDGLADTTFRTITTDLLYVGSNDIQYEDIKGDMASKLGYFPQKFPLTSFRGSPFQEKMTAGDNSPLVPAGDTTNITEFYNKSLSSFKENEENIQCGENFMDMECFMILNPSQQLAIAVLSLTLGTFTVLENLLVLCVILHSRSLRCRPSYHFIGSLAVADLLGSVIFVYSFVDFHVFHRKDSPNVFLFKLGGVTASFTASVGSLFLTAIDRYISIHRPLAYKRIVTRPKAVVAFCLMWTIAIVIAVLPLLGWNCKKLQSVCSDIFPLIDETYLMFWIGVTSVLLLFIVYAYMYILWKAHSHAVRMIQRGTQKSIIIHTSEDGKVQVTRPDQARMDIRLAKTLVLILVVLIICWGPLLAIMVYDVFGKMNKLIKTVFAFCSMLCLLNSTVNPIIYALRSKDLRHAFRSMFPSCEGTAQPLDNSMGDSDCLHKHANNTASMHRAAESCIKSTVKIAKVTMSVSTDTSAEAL

SMILES	Latency to maximal effect [1]	Maximal hypotension (difference in mean arterial pressure before and after drug) [1]	Time of recovery [1]	Analgesia, ED50 (mice)	further results
CCCCC/C=C\C/C=C\C/C=C\C/C=C\CCCC(=O)OC(CO)CO [2-Ara-GL, 2-arachidonoyl glycerol]	7.2 min	34 mm Hg	13.0 min		
CCCCC/C=C\C/C=C\C/C=C\C/C=C\CCCC(=O)NCCO [ANA, anandamide]	2.0 min	15 mm Hg	7.0 min		
CCCCC/C=C\C/C=C\C/C=C\C/C=C\CCCCOC(CO)CO [HU-310, 2-O-Arachidonyl glyceryl ether]	34.0 min	105 mm Hg	75.0 min	2.8 mg/kg	Inhibition of Arachidonic Acid-induced Paw Edema ([2]; dose 5 mg/kg): 70.2%; Inhibition of Arachidonic Acid-induced Paw Edema ([2]; dose 10 mg/kg): 92.2%; Inhibition of Arachidonic Acid-induced Paw Edema ([2]; dose 25 mg/kg): 100.0%; Ki (CB1 receptor): 62.3 ± 3 nM; Reduction of vomiting ([3]; 3.0 mg per kg body weight): 50%
CCCCC/C=C\C/C=C\C/C=C\CCCCCCCOC(CO)CO [HU-314, 2-dihomo-γ-linolenyl glyceryl ether]				4.6 mg/kg	Reduction of vomiting (in words) ([3]; compared with HU-310): vomiting was also reduced, however to a lesser extent
CC[C@@H]1C(=O)OC[C@@H]1Cc1cncn1C [pilocarpine]					Delay in the recovery of the original chymotrypsin-induced IOP [4]: 30 h
